Assay results published in patent US20200339548A1, “PYRIMIDINE DERIVATIVES AND THEIR USE FOR THE TREATMENT OF CANCER” (Adorx Therapeutics Limited, priority 2017, published 2020).
Where two headings read alike, the source gives them in different places.

Key:
cancer = conditions: monotherapy and in combination with atezolizumab, preliminary data, cited from earlier work
Adenosine A3 receptor = target: T1, Adenosine A3 receptor (Homo sapiens, UniProt P0DMS8); assay: Adenosine receptor TR-FRET binding assay, A3
T1 construct: expressed in transfected cells; host or cells: CHO cell membranes
T1 sequence (P0DMS8 1-318): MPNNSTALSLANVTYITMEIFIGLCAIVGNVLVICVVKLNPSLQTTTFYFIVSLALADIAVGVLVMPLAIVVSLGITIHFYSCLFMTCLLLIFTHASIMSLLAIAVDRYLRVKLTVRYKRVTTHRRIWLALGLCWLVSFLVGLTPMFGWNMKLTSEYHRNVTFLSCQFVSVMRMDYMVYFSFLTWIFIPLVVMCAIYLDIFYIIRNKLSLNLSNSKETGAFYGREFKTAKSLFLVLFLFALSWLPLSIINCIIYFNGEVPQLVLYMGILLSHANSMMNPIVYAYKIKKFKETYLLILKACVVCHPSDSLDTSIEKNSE
Procedure, shortened: (§1)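 Competition TR-FRET binding in CHO cell membranes expressing terbium-labelled human receptors, displacing fluorescent XAC (CA200645; 30 nM for A2b, 100 nM for A1, A2a, A3); 2 h at room temperature with saponin buffer, 1% DMSO. 665/620 nm ratio; non-specific with 10 μM XAC; Ki by Cheng–Prusoff from IC50.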

Adenosine A2a receptor = target: T2, Adenosine A2a receptor (Homo sapiens, UniProt P29274); assay: Adenosine receptor TR-FRET binding assay, A2a; conditions: displacement of 100 nM CA200645, CHO cell membranes
T2 construct: expressed in transfected cells; host or cells: CHO cell membranes
T2 sequence (P29274 whole entry): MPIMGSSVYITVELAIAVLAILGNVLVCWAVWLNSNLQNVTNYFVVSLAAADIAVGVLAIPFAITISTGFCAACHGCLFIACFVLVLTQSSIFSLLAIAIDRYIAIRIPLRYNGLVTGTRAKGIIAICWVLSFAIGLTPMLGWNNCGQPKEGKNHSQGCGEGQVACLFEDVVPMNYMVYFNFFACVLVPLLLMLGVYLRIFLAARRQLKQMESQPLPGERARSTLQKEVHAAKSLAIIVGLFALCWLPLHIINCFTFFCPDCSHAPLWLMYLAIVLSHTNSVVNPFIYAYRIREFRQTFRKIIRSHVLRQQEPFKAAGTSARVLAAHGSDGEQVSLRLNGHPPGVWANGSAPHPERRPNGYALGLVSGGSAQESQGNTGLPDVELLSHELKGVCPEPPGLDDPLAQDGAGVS
Procedure, shortened: as §1

Adenosine A1 receptor = target: T3, Adenosine A1 receptor (Homo sapiens, UniProt P30542); assay: Adenosine receptor TR-FRET binding assay, A1; conditions: Table 9, further testing; displacement of 100 nM CA200645, CHO cell membranes
T3 construct: expressed in transfected cells; host or cells: CHO cell membranes
T3 sequence (P30542 1-326): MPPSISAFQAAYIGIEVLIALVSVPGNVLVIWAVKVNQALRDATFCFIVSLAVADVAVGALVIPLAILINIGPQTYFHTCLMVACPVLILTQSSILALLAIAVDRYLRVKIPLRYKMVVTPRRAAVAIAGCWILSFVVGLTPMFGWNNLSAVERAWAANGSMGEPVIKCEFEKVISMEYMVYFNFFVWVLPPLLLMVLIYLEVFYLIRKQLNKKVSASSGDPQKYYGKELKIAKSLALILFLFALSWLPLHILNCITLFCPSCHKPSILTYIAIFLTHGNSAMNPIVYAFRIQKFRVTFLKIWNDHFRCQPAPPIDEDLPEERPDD
Procedure, shortened: as §1

Adenosine A2b receptor = target: T4, Adenosine A2b receptor (Homo sapiens, UniProt P29275); assay: Adenosine receptor TR-FRET binding assay, A2b; conditions: Table 9, further testing; displacement of 30 nM CA200645, CHO cell membranes
T4 construct: expressed in transfected cells; host or cells: CHO cell membranes
T4 sequence (P29275 1-332): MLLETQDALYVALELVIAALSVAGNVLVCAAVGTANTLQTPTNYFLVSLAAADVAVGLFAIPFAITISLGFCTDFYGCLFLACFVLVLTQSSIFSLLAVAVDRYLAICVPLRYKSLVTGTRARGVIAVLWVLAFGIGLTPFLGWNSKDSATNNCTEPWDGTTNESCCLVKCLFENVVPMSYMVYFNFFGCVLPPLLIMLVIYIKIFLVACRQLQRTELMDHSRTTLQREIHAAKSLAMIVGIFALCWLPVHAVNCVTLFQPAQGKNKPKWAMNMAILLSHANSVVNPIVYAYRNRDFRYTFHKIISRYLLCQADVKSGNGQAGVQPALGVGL
Procedure, shortened: as §1

Human PBMCs = assay: CD3/CD28 stimulated IL-2 release NECA reversal assay; type: cell-based; conditions: Homo sapiens, PBMC, read-out: IL-2 release NECA reversal IC50 (nM), 1 uM NECA, 24 hours
Procedure: Blood is drawn from healthy volunteers using sodium citrate as the anticoagulant (0.3% final concentration). […] 50 μl diluted compound mix is added to the cells, to obtain final concentrations of 1 ug/ml CD28 antibody, 1 uM NECA and 0.003-10 μM adenosine receptor antagonist. Assay plates are incubated for 24 hours at 37° C. in a humidified incubator.

[1] = system: CD8+T Cells in Human Whole Blood; assay: Measurement of pCREB in CD8+ T cells; type: cell-based; conditions: T-cell, 1 h; heparinised human whole blood, rolipram, 3 μM NECA, 60 min, FACS
Procedure: Heparinised human whole blood was pre-incubated at 37° C. with serial dilutions of A2a antagonists for 20 min. and the phosphodiesterase inhibitor rolipram to amplify the pCREB response. The adenosine receptor agonist NECA is then added at a final concentration of 3 μM and following a 60 min incubation the blood is fixed and red blood cells lysed. White blood cells are isolated, permeabilized and stained with directly conjugated fluorescent antibodies to phospho-CREB (Alexa Fluor 488) and CD8 (Alexa Fluor 647) and the level of phospho-CREB in CD8+ T cells is measured by FACS using a BD Accuri C6 Flow Cytometer.

[2] = Table 9, further testing, displacement of 100 nM CA200645, CHO cell membranes, read-out: A3 Ki

SMILES	Ki (Adenosine A2a receptor; Table 8, Cheng and Prusoff) [nM]	Ki (Adenosine A2a receptor; Table 9, further testing) [nM]	Ki (Adenosine A1 receptor) [nM]	Ki (Adenosine A2b receptor) [nM]	Ki (Adenosine A3 receptor; [2]) [nM]	IC50 [1] [nM]	CD8+T infiltration into tumour tissue (cancer; early indications)	tumour size (cancer; early indications)	tolerability (cancer)	Ki (Adenosine A3 receptor) [nM]	IC50 (Human PBMCs) [nM]
Cc1ccc(-c2nc(N)nc3c2nnn3Cc2cccc(CO[C@H]3CCOC3)n2)o1 [CPI-444]							enhancing CD8^+T infiltration into tumour tissue	reducing tumour size	well tolerated		
Nc1nc(-c2ccco2)ncc1C(=O)NCc1ncccc1Cl [Example 5.21, 4-Amino-N-[(3-chloro-2-pyridyl)methyl]-2-(2-furyl)pyrimidine-5-carboxamide]	1.5	1.5	1850	1160						1190	123
Nc1nc(-c2ccco2)ncc1C(=O)NCc1cccc2cccnc12 [Example 5.25, 4-Amino-2-(2-furyl)-N-(8-quinolylmethyl) pyrimidine-5-carboxamide]	1.2	0.83	706	1470	506						15
Nc1nc(-c2cccc(F)c2)ncc1C(=O)NCc1c(Cl)cccc1Cl [Example 10.6, 4-Amino-N-[(2,6-dichlorophenyl)methyl]-2-(3-fluorophenyl)pyrimidine-5-carboxamide]	32	32	231	1310	160						685
COc1ccccc1CNC(=O)c1cnc(-c2cccc(F)c2)nc1N [Example 10.8, 4-Amino-2-(3-fluorophenyl)-N-[(2-methoxyphenyl)methyl]pyrimidine-5-carboxamide]	27	27	143	1750	230						2000
Nc1nc(-c2cccc(F)c2)ncc1C(=O)NCc1cccc2cccnc12 [Example 10.13, 4-Amino-2-(3-fluorophenyl)-N-(8-quinolylmethyl)pyrimidine-5-carboxamide]	4.7	3.3	38	415	105						926
CCn1ccnc1CNC(=O)c1cnc(-c2cccc(F)c2)nc1N [Example 10.14, 4-Amino-N-[(1-ethylimidazol-2-yl)methyl]-2-(3-fluorophenyl)pyrimidine-5-carboxamide]	42	42	159	1140	609						1240
Cc1cccnc1CNC(=O)c1cnc(-c2cccc(C#N)c2)nc1N [Example 12, 4-Amino-2-(3-cyanophenyl)-N-[(3-methyl-2-pyridyl)methyl]pyrimidine-5-carboxamide]	27	27	17	1560	1030						1200
Cc1cccnc1CNC(=O)c1nnc(-c2cccc(C#N)c2)nc1N [Example 17, 5-Amino-3-(3-cyanophenyl)-N-[(3-methyl-2-pyridyl)methyl]-1,2,4-triazine-6-carboxamide]	3.8	2.4	767	405	442						309
COc1nc(-c2ccco2)nc(N)c1C(=O)NCc1ncccc1C [Example 18, 4-Amino-2-(2-furyl)-6-methoxy-N-[(3-methyl-2-pyridyl)methyl]pyrimidine-5-carboxamide]	1.1	0.64	202	231	201						37
Cc1cccnc1CNC(=O)c1c(N)nc(-c2ccco2)nc1OCCF [Example 20.7, 4-Amino-6-(2-fluoroethoxy)-2-(2-furyl)-N-[(3-methyl-2-pyridyl)methyl]pyrimidine-5-carboxamide]		0.11	6.6	29	15						14
Cc1cccnc1CNC(=O)c1c(N)nc(-c2ccco2)nc1OC[C@@H](C)O [Example 20.13, 4-Amino-2-(2-furyl)-6-[(2R)-2-hydroxypropoxy]-N-[(3-methyl-2-pyridyl)methyl]pyrimidine-5-carboxamide]		0.099	9	611	14						19
CC(O)CCNC(=O)c1c(N)nc(-c2cccc(C#N)c2)nc1OCCF (stereo not shown) [Example 24.6, 4-Amino-2-(3-cyanophenyl)-6-(2-fluoroethoxy)-N-(3-hydroxybutyl)pyrimidine-5-carboxamide]		7	629	1070	2220						207

More lines, in order of falling Ki (Adenosine A2a receptor; Table 9, further testing), values ahead:

Ki (Adenosine A2a receptor; Table 8, Cheng and Prusoff) [nM]	Ki (Adenosine A2a receptor; Table 9, further testing) [nM]	Ki (Adenosine A1 receptor) [nM]	Ki (Adenosine A2b receptor) [nM]	Ki (Adenosine A3 receptor; [2]) [nM]	IC50 [1] [nM]	SMILES	CD8+T infiltration into tumour tissue (cancer; early indications)	tumour size (cancer; early indications)	tolerability (cancer)	Ki (Adenosine A3 receptor) [nM]	IC50 (Human PBMCs) [nM]
34	34	90	1280	2510		CC(C)n1ncnc1CNC(=O)c1cnc(-c2cccc(F)c2)nc1N [Example 10.15, 4-Amino-2-(3-fluorophenyl)-N-[(2-isopropyl-1,2,4-triazol-3-yl)methyl]pyrimidine-5-carboxamide]					1290
13	13	93	54	421		Nc1nc(-c2cccc(F)c2)ncc1C(=O)NCc1ccccc1O [Example 10.1, 4-Amino-2-(3-fluorophenyl)-N-[(2-hydroxyphenyl)methyl]pyrimidine-5-carboxamide]					216
11	12	42	383	13		Cc1cccnc1CNC(=O)c1nnc(-c2cccc(F)c2)nc1N [Example 7, 5-Amino-3-(3-fluorophenyl)-N-[(3-methyl-2-pyridyl)methyl]-1,2,4-triazine-6-carboxamide]					830
	1.8	4.9	1220	11		Cc1cccnc1CNC(=O)c1c(N)nc(-c2ccco2)nc1OCC(C)(C)C [Example 20.10, 4-Amino-6-(2,2-dimethylpropoxy)-2-(2-furyl)-N-[(3-methyl-2-pyridyl)methyl]pyrimidine-5-carboxamide]					62
	1.3	260	77	62	106	Cc1cccnc1CNC(=O)c1c(N)nc(-c2ncco2)nc1OCCF [Example 25, 4-Amino-6-(2-fluoroethoxy)-N-[(3-methyl-2-pyridyl)methyl]-2-oxazol-2-yl-pyrimidine-5-carboxamide]					11
	0.23	176	495	149		COc1nc(-c2ccco2)nc(N)c1C(=O)NCc1ncccc1C(F)(F)F [Example 18.1, 4-Amino-2-(2-furyl)-6-methoxy-N-[[3-(trifluoromethyl)-2-pyridyl]methyl]pyrimidine-5-carboxamide]					28
